According to US20210261636A1, “NEOANTIGENS EXPRESSED IN MULTIPLE MYELOMA AND THEIR USES” (Janssen Biotech, Inc., priority 2020, published 2021):

B1: PPTAAASQVRSPTTATGTAAAGSLRAQTSSRATTESTRATGHSSAICAIVPSRAPITWRCT (peptide)
chain: PPTAAASQVRSPTTATGTAAAGSLRAQTSSRATTESTRATGHSSAICAIVPSRAPITWRCT
notes: gene fusion FOSB-> KLF2
B2: RQREVVDLVSPREPSRDRRAGGGDLAARPTGRASVWLLGVSVCTAVCRVSCCAGVSCFLFTGEEGPGYACSESWNSEGRPKWEAIVERTCDMGPYNGMCLQG (peptide)
chain: RQREVVDLVSPREPSRDRRAGGGDLAARPTGRASVWLLGVSVCTAVCRVSCCAGVSCFLFTGEEGPGYACSESWNSEGRPKWEAIVERTCDMGPYNGMCLQG
notes: alternative splicing, CTHRC1
B3: TQRLPGHKVSNSCMTGLVLTFTKRDPFHKPVTWCGQLADVRQCMFHSIRERAHPLQRALATLNFFFVSFYTALYLTHPLLTLQTWEVVVTVCFSCWELCVPCDVLRRTCRGQR (peptide)
chain: TQRLPGHKVSNSCMTGLVLTFTKRDPFHKPVTWCGQLADVRQCMFHSIRERAHPLQRALATLNFFFVSFYTALYLTHPLLTLQTWEVVVTVCFSCWELCVPCDVLRRTCRGQR
notes: alternative splicing, BTBD3

Legend:
CD4+ T cells = test: Exogenous autologous healthy donor restimulation assay, TNFα and IFNγ production by CD4+ T cells; format: cell-based, human; parameters: Frequency (TNFα+ IFNγ+ CD4 T cells): unit not given here; conditions: donor independent, peptide pool 10 μg/mL, healthy donors; for Fold change (CD4+) vs. DMSO: maximum CD4+ T-cell response (TNFα and IFNγ); for Frequency (TNFα+ IFNγ+ CD4 T cells): maximum CD4+ T-cell response
Outline: (§1)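 CD1c+ DCs from healthy donor PBMCs pulsed 2 h with 15-mer overlapping neoantigen peptide pools (10 μg/mL), irradiated 50 Gy, then co-cultured 12 days with autologous CD3+ T cells plus IL-15/IL-2. Restimulated day 11 with same pools, overnight with protein inhibitor; intracellular TNFα/IFNγ by flow. Positive: ≥3-fold over DMSO and ≥0.01% double-positive.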

CD8+ T cells = test: Exogenous autologous healthy donor restimulation assay, TNFα and IFNγ production by CD8+ T cells; format: cell-based, human; parameters: Frequency (TNFα+ IFNγ+ CD8 T cells): unit not given here; conditions: for Fold change (CD8+) vs. DMSO: maximum CD8+ T-cell response (TNFα and IFNγ); for Fold change (CD8+) vs. DMSO / Frequency (TNFα+ IFNγ+ CD8 T cells): donor independent, peptide pool 10 μg/mL, healthy donors; for Frequency (TNFα+ IFNγ+ CD8 T cells): maximum CD8+ T-cell response; for Immunogenic (yes/no): positive if CD8+ and/or CD4+ double positive TNFα/IFNγ frequency >=3-fold over DMSO and at least 0.01%
Outline: as §1

Molecule	Fold change (CD4+) vs. DMSO (CD4+ T cells)	Frequency (TNFα+ IFNγ+ CD4 T cells) (CD4+ T cells)	Fold change (CD8+) vs. DMSO (CD8+ T cells)	Frequency (TNFα+ IFNγ+ CD8 T cells) (CD8+ T cells)	Immunogenic (yes/no) (CD8+ T cells)
QLKKMVSKVRLRRARLPGRAHRSLPRPVESVPAQPSKLPRRAGSPGAVLSDLLRTPPRGACRLVRESPYGSWEGGGRRQSTKAWSGGYLTPAAHPPSSLPLSLELSVGQCSFSFVFINTNKGSYLVVDLRQSSTPVPI [AS11]	69.02	0.45	4	0.033	Yes
QLSVVTRDDYNSSELK [AS87, alternative splicing, BMP6]	4.45	0.016	44.64	1.25	Yes
QRDRDSIKVGLKIYRLRNGLKGL [AS76, alternative splicing, TLE4]	224.35	0.34	6.15	0.54	Yes
RHQENVHTVLVHGKVKGLFYI [AS125, alternative splicing, PRDM5]	6.57	0.023	28.62	0.78	Yes
RPGVFTDIL [FUS53, gene fusion PTPRG-> C3orf14]	6.29	0.041	76.5	0.78	Yes
RQLQQQLSSLSGPEGVPFLKLWCLDDLLSTLLGTCRCPSRAQF [FUS57, gene fusion MED12-> NLGN3]	11.65	0.24	17.2	0.14	Yes
RSISLHKSDPSLLSPN [AS25, alternative splicing, TBCEL]	57.01	0.061	43.6	0.028	Yes
SATTRSITGQDILSLEKERR [AS17, alternative splicing, DCC]	7.078	0.028	14.05	0.13	Yes
SEMVAHERYVFEATGNDSFRTLCLLMK [AS112, alternative splicing, CFAP54]	7.92	0.012	35.03	0.062	Yes
SGLLMNTLTVLILYFLY [FUS9, gene fusion EAF2-> SLC15A2]	3.08	0.031	5.53	0.13	Yes
SLLSLFPGKTVEITCLQHQKC [AS3, alternative splicing, BBS9]	3.43	0.026	92.41	0.28	Yes
SQKQPALKCLLRNNRP [AS84, alternative splicing, ANKRD36]	10.66	0.019	162.14	4.54	Yes
SRAPIKMSVLGQGHSRCLLHCLCLVAPMAFPVRLRVPCGG [AS16, alternative splicing, CAMSAP1]	15.062	0.011	8200	0.82	Yes
SSLQEHRKLLS [AS52, alternative splicing, PRDM5]	1.9	0.012	12.72	0.18	Yes
SSVTTHSSGNLRESPIYH [FUS32, gene fusion GANC-> CAPN3]	3.08	0.008	12.04	0.018	Yes
TAILFTRQQSKALPSLGITNRHGFWAGQGNTVMHGRDSDGKQVKGTVVILAQGAFHQ [AS109, alternative splicing, ADAMTS15]	42.23	0.064	4.15	0.019	Yes
TSTSPKFPVFIFRLVCWVRTELVLR [AS47, alternative splicing, NRG3]	1.907	0.011	53.5	0.25	Yes
TVPASQKLSCSLDPKHLRQFHL [AS30, alternative splicing, BLNK]	2.23	0.012	13.86	0.082	Yes
VAPSGLYYCG [FUS34, gene fusion CLN6-> CALML4]	8.33	0.015	8.7	0.013	Yes
VAPSQSRQEECWRHKMSW [AS42, alternative splicing, LARP1B]	3.83	0.025	40	0.076	Yes
VEDEEKKEAGTHFIHLTGTTVSAGVPEEMPATTLRREVF [AS108, alternative splicing, ACIN1]	179.31	1.06	1406.07	12.5	Yes
VHLDFSSAEMGFPHAAQANVELLGSSDLLT [AS116, alternative splicing, FCRL5]	6.32	0.076	192.71	1.42	Yes
VYYLYKNVAYKGSDID [AS86, alternative splicing, ATP10B]	12.54	0.019	2.7	0.018	Yes
WLLRTWERADSGL [AS123, alternative splicing, PCNX3]	2.25	0.05	5.371	0.046	No
WTRPEKQELNSSCCSLIL [AS120, alternative splicing, NCAM1]	3.71	0.018	13.03	0.24	Yes
YECTGCKTSFPHRSQS [FUS46, gene fusion GCNA-> LOC101059915]	9.3	0.017	143.71	1.33	Yes
YGVYVINQKGHSGCIWSMDGEGRLETAWPVWKRGRCPGKRR [AS15, alternative splicing, B4GALT2]	2469.136	0.9	290	0.029	Yes
B1	6.84	0.002	37.46	0.056	Yes
B2	57.613	0.072	2700	0.27	Yes
B3	7.26	0.025	17.3	0.77	Yes
